{"source": "patent US20040038199A1", "about": "“Phenotyping assay and reagents therefor” (priority 2000, published 2004)", "format_in_all_cases": "cell-based, HIV-1", "key": {"[1]": {"tested_on": "WT (HXB2) generated by FPH or RVA", "experiment": "MTT-reduction cell viability drug susceptibility assay, WT (Table 3B)", "conditions": "for EC50: Human immunodeficiency virus 1, HXB2, Table 3B; for fold resistance: Table 3B", "method": "(§1) As previously discussed, recombinant virus produced by the method of the present invention may be used in drug sensitivity assays. A suitable drug sensitivity assay is described in Pauwels et al. (1988) and is an MTT-reduction colorimetric cell viability assay. Cells infected with the virus are plated into the wells of tissue culture plates and incubated with the anti-viral drug to be tested. After incubation, MTT (3-(4,5-dimethylthiazol-2-yl)-2,5diphenyltetrazolium bromide) is added to the cell culture. Only live cells produce the blue formazan product after incubation with MTT. This product is detectable by reading the optical absorbance at 540-590 nm, so the absorbance reading gives a measure of the cells which have been protected from the virus by the anti-viral drug. Viral drug resistance results in a decrease in surviving cells and a decrease in absorbance at 540-590 nm.\n(§2) In order to determine whether the extra sequences in the FPH recombinants contain determinants of susceptibility, the recombinant viruses were tested against several drugs. Drug susceptibility was determined by the 3-(4,5dimethylthiazol-2-yl)-2,5-diphenyltetrazolium bromide (MTT)-reduction calorimetric cell viability assay described previously (Pauwels et al. 1988; Robinson et al., 2000). Changes in susceptibility were defined as fold increase in IC50 relative to WT (HXB2). Nucleotide sequences were determined using ABI 3700 capillary sequencers and Big Dye terminators. […] Virus 1 also gave a 2.2-fold (Table 3A) or 4-fold (Table 3B) higher susceptibility to IDV and 2.9-fold (Table 3A) or 3.2-fold higher susceptibility to APV when generated by RVA."}, "[2]": {"tested_on": "Virus 4.1, 4.2, 4.3 (recombinants by RVA)", "experiment": "MTT-reduction cell viability drug susceptibility assay, viruses 4.1-4.3 (Table 3B)", "conditions": "for EC50: Human immunodeficiency virus 1, Table 3B; for fold resistance: Table 3B, relative to WT", "method": "as §1\n(§3) The LTR was added to the nested products by PMR prior to transfection. The PMR reactions successfully added the LTR sequences to the nested products (FIG. 9). The first round RT-PCR reactions were also used as templates to generate products for RVA by cotransfection with pHXBΔCSPRTC. Triplicate PCR products were cotransfected into MT4 cells with the linearised plasmid pHXBTOPO1, in the case of the PMR products, and with linearised pHXBΔCSPRTC in for the RVA products. Viral cytopathic effect was observed and titratable virus was harvested in the supernatants. No virus was isolated from virus 2 using FPH and only one of the triplicate cultures from virus 3 yielded infectious virus. All of the RVA cultures produced virus.\nas §2"}, "[3]": {"tested_on": "Virus 1 (recombinant generated from plasma of Subject 1 by FPH or RVA)", "experiment": "MTT-reduction cell viability drug susceptibility assay, recombinant Virus 1 (FPH or RVA)", "conditions": "for EC50 / fold resistance: Table 3A; for EC50: read-out: Drug EC50; for fold resistance: relative to WT (HXB2)", "method": "as §1\n(§4) In this experiment, plasma from three HIV-1 infected subjects experiencing virological failure on PI-containing therapy regimens was used as the basis for the FPH to generate recombinant virus. […] Virus from Subject 2 had L10I, M46I, I50V and a Lp1′F mutation at the p1/p6 protease cleavage site, all of which are mutations typical of high level APV resistance.\nas §3, §2"}, "[4]": {"tested_on": "recombinant viruses generated by FPH or RVA", "experiment": "Comparison of drug susceptibility of FPH generated and RVA generated viruses", "conditions": "two separate experiments (tables 3A and B)", "method": "as §1\nIn order to determine whether the extra sequences in the FPH recombinants contain determinants of susceptibility, the recombinant viruses were tested against several drugs. Drug susceptibility was determined by the 3-(4,5dimethylthiazol-2-yl)-2,5-diphenyltetrazolium bromide (MTT)-reduction calorimetric cell viability assay described previously (Pauwels et al. 1988; Robinson et al., 2000). […] Nucleotide sequences were determined using ABI 3700 capillary sequencers and Big Dye terminators. […]"}, "[5]": {"tested_on": "Virus 5.1 (FPH), 5.2 (RVA)", "experiment": "MTT-reduction cell viability drug susceptibility assay, viruses 5.1 and 5.2 (Table 3B)", "conditions": "for EC50: Human immunodeficiency virus 1, Table 3B; for fold resistance: Table 3B, relative to WT", "method": "as §1, §3, §2"}, "[6]": {"tested_on": "Virus 3 (recombinant generated from plasma of Subject 3 by FPH or RVA)", "experiment": "MTT-reduction cell viability drug susceptibility assay, recombinant Virus 3 (FPH or RVA)", "conditions": "for EC50 / fold resistance: Table 3A; for fold resistance: relative to WT (HXB2)", "method": "as §1, §4, §3, §2"}, "[7]": {"tested_on": "Virus 3.1, 3.2, 3.3 (recombinants by FPH or RVA)", "experiment": "MTT-reduction cell viability drug susceptibility assay, viruses 3.1-3.3 (Table 3B)", "conditions": "for fold resistance: Table 3B, relative to WT", "method": "as §1, §3, §2"}, "[8]": {"tested_on": "Virus 2 (recombinant generated from plasma of Subject 2 by RVA)", "experiment": "MTT-reduction cell viability drug susceptibility assay, recombinant Virus 2 (RVA)", "conditions": "for EC50 / fold resistance: Table 3A, Virus 2, method RVA; for fold resistance: relative to WT (HXB2)", "method": "as §1, §4, §3, §2"}, "HXB2": {"tested_on": "HXB2", "experiment": "MTT-reduction cell viability drug susceptibility assay, wild type HXB2 (Table 3A)", "conditions": "for EC50: HXB2 wild type; for fold resistance: HXB2 wild type (reference)", "method": "as §1, §2"}}, "note": "Read-outs that look alike come from different tables or passages of the source."}
{"smiles": "Cc1cn([C@H]2C[C@H](N=[N+]=[N-])[C@@H](CO)O2)c(=O)[nH]c1=O", "note": "[ZDV, zidovudine]", "values": [{"measurement": "EC50", "setting": "[1]; method FPH", "value": 28.3, "unit": "nM"}, {"measurement": "EC50", "setting": "[1]; method RVA", "value": 30.7, "unit": "nM"}, {"measurement": "fold resistance", "setting": "[1]; method FPH (reference)", "value": "(1.0) fold"}, {"measurement": "fold resistance", "setting": "[1]; method RVA (reference)", "value": "(1.0) fold"}, {"measurement": "EC50", "setting": "[2]; Virus 4.1, method RVA", "value": "> 5000", "unit": "nM"}, {"measurement": "EC50", "setting": "[2]; Virus 4.2, method RVA", "value": "> 5000", "unit": "nM"}, {"measurement": "EC50", "setting": "[2]; Virus 4.3, method RVA", "value": "> 5000", "unit": "nM"}, {"measurement": "fold resistance", "setting": "[2]; Virus 4.1, method RVA", "value": "(>163) fold"}, {"measurement": "fold resistance", "setting": "[2]; Virus 4.2, method RVA", "value": "(>163) fold"}, {"measurement": "fold resistance", "setting": "[2]; Virus 4.3, method RVA", "value": "(>163) fold"}, {"measurement": "fold higher susceptibility when generated by RVA than when generated by FPH", "setting": "[3]; virus 1, Table 3B experiment", "value": 4.8, "unit": "fold"}, {"measurement": "Susceptibility in FPH generated versus RVA generated viruses", "setting": "[4]", "value": "lower in the FPH generated than the RVA generated viruses"}, {"measurement": "EC50", "setting": "[5]; Virus 5.1, method FPH", "value": 48.2, "unit": "nM"}, {"measurement": "EC50", "setting": "[5]; Virus 5.2, method RVA", "value": 16.5, "unit": "nM"}, {"measurement": "fold resistance", "setting": "[5]; Virus 5.1, method FPH", "value": "(1.7) fold"}, {"measurement": "fold resistance", "setting": "[5]; Virus 5.2, method RVA", "value": "(−1.9) fold"}, {"measurement": "difference in susceptibility between the two techniques (RVA vs FPH)", "setting": "[6]; virus 3, Table 3B experiment", "value": 2.9, "unit": "fold"}, {"measurement": "EC50", "setting": "[7]; Human immunodeficiency virus 1, Table 3B, Virus 3.1, method FPH, read-out: Drug EC50", "value": 76.1, "unit": "nM"}, {"measurement": "EC50", "setting": "[7]; Human immunodeficiency virus 1, Table 3B, Virus 3.2, method FPH, read-out: Drug EC50", "value": 65.3, "unit": "nM"}, {"measurement": "EC50", "setting": "[7]; Human immunodeficiency virus 1, Table 3B, Virus 3.3, method FPH, read-out: Drug EC50", "value": 35.1, "unit": "nM"}, {"measurement": "EC50", "setting": "[7]; Human immunodeficiency virus 1, read-out: Drug EC50, Table 3B, Virus 3.1, method RVA", "value": 12.3, "unit": "nM"}, {"measurement": "fold resistance", "setting": "[7]; Virus 3.1, method FPH", "value": "(2.7) fold"}, {"measurement": "fold resistance", "setting": "[7]; Virus 3.1, method RVA", "value": "(−2.5) fold"}, {"measurement": "fold resistance", "setting": "[7]; Virus 3.2, method FPH", "value": "(2.3) fold"}, {"measurement": "fold resistance", "setting": "[7]; Virus 3.3, method FPH", "value": "(1.2) fold"}, {"measurement": "resistance, fold higher than wild-type", "setting": "[8]; Virus 2 obtained via the RVA, Table 3B experiment", "value": "> 84", "unit": "fold"}]}
{"smiles": "Cc1c(O)cccc1C(=O)N[C@@H](CSc1ccccc1)[C@H](O)CN1C[C@H]2CCCC[C@H]2C[C@H]1C(=O)NC(C)(C)C", "note": "[NFV]", "values": [{"measurement": "EC50", "setting": "HXB2", "value": 29.9, "unit": "nM"}, {"measurement": "fold resistance", "setting": "HXB2", "value": "(1.0) fold"}, {"measurement": "EC50", "setting": "[3]; Virus 1, method FPH", "value": 70, "unit": "nM"}, {"measurement": "fold resistance", "setting": "[3]; Virus 1, method FPH", "value": "(2.3) fold"}, {"measurement": "EC50", "setting": "[3]; Virus 1, method RVA", "value": 26.9, "unit": "nM"}, {"measurement": "fold resistance", "setting": "[3]; Virus 1, method RVA", "value": "(0.90) fold"}, {"measurement": "EC50", "setting": "[6]; Virus 3, method FPH", "value": 591, "unit": "nM"}, {"measurement": "fold resistance", "setting": "[6]; Virus 3, method FPH", "value": "(20) fold"}, {"measurement": "EC50", "setting": "[6]; Virus 3, method RVA", "value": 390, "unit": "nM"}, {"measurement": "fold resistance", "setting": "[6]; Virus 3, method RVA", "value": "(13) fold"}, {"measurement": "EC50", "setting": "[8]", "value": 70.8, "unit": "nM"}, {"measurement": "fold resistance", "setting": "[8]", "value": "(2.4) fold"}]}
{"smiles": "CC(C)(C)NC(=O)[C@@H]1C[C@@H]2CCCC[C@@H]2CN1C[C@@H](O)[C@H](Cc1ccccc1)NC(=O)[C@H](CC(N)=O)NC(=O)c1ccc2ccccc2n1", "note": "[SQV]", "values": [{"measurement": "EC50", "setting": "HXB2", "value": 13.1, "unit": "nM"}, {"measurement": "fold resistance", "setting": "HXB2", "value": "(1.0) fold"}, {"measurement": "EC50", "setting": "[3]; Virus 1, method FPH", "value": 13.1, "unit": "nM"}, {"measurement": "fold resistance", "setting": "[3]; Virus 1, method FPH", "value": "(1.0) fold"}, {"measurement": "EC50", "setting": "[3]; Virus 1, method RVA", "value": 6.56, "unit": "nM"}, {"measurement": "fold resistance", "setting": "[3]; Virus 1, method RVA", "value": "(0.5) fold"}, {"measurement": "EC50", "setting": "[6]; Virus 3, method FPH", "value": 16.4, "unit": "nM"}, {"measurement": "fold resistance", "setting": "[6]; Virus 3, method FPH", "value": "(1.3) fold"}, {"measurement": "EC50", "setting": "[6]; Virus 3, method RVA", "value": 13.7, "unit": "nM"}, {"measurement": "fold resistance", "setting": "[6]; Virus 3, method RVA", "value": "(1.0) fold"}, {"measurement": "EC50", "setting": "[8]", "value": 9.06, "unit": "nM"}, {"measurement": "fold resistance", "setting": "[8]", "value": "(0.69) fold"}]}
